Where two headings read alike, the source gives them in different places.

For test [1], the system named is L-arginine-induced acute pancreatitis model. Particulars: 5 mg/kg, n=5.
Text: Pathological changes were studied on H&E stained pancreatic sections (FIG. 17).
Specifically, panel (A) represents edema, panel (B) represents inflammatory cells (mononuclear and polymorphonuclear cells), panel (C) represents parenchymal atrophy, and panel (D) represents the total score (edema, mononuclear cell, polymorphonuclear cell, and parenchymal atrophy) (n=5 for each group) *p<0.05, **p<0.01 vs Mod.
The test system of test [2] is CFA-induced rheumatoid arthritis model.
Experimental: Except for the normal group, the animals in the other groups were injected with 25 µL/mouse of CFA at the bottom of right feet. Different drugs were prepared with pure water to the corresponding concentrations before administration. 30 min after modeling, different test substances were administrated to the animals in each group by oral gavage at 20 mL/kg, 1 time on the same day. The normal control group and the model control group were given the same volume of pure water. […] On the 20th day after modeling, all model animals were regrouped according to the joint index score and administrated with 20 mL/kg by oral gavage 1 time daily for consecutive 7 days. The joint index score of each group was determined on the 3rd and 7th days after administration, and the pain threshold of the animals was tested with a hot plate instrument after the last administration.
The significant figures of the test data were rounded off and statistical analysis was conducted in accordance with SOP. The software used for statistics was SPSS22.0. Measurement data were expressed as Mean ± standard deviation (x ± s), and Leven's test was used to test normality and homogeneity of variance. If there was no statistical significance (P>0.05), statistical analysis was done using one-factor ANOVA. If ANOVA was statistically significant (P≤0.05), LSD test (parametric method) was used for comparative analysis. If variance was unequal (P≤0.05), the Kruskal-Wallis test was used. If the Kruskal-Wallis test was statistically significant (P≤0.05), Dunnett's Test (nonparametric method) was used for comparative analysis.
Test [3] has as its system CFA-induced AIA mouse model. Particulars: C57BL/6 mice, oral gavage.
Experimental: Finally, the thickness of the paws of the AIA mouse model at different time points after compound injection was evaluated and compared with the thickness of the mouse paws before modeling, and the swelling reduction rate of the mouse paws was calculated.
Test [4] concerns chronic granuloma model. The following applies: rats, 20 mg/kg oral gavage once a day for 7 days (medium-dose; celecoxib group).
Experimental: After the animals were anesthetized by isoflurane inhalation, cotton balls of about 50 mg were buried in the groin of the rats on both sides. The surgical procedure was strictly conducted aseptically. Penicillin was injected intraperitoneally for anti-inflammatory treatment after surgery. Before administration, different drugs were prepared into a concentration of 0.5 mg/mL with pure water in each group, and different test substances were administered by oral gavage at 10 mL/kg, 1 time a day for consecutive 7 days, while the model control group was administrated with an equal volume of pure water. After the last administration, the mice were anesthetized by isoflurane inhalation and then bled, and the cotton ball granuloma was removed and weighed to calculate the degree of swelling (wet weight of cotton ball granuloma - dry weight of cotton ball).
The significant figures of the test data were rounded off and statistical analysis was conducted in accordance with SOP. The software used for statistics was SPSS22.0. Measurement data were expressed as Mean ± standard deviation (x ± s), and Leven's test was used to test normality and homogeneity of variance. If there was no statistical significance (P>0.05), statistical analysis was done using one-factor ANOVA. If ANOVA was statistically significant (P≤0.05), LSD test (parametric method) was used for comparative analysis. […]
[5] abbreviates: 30 mg/kg oral gavage (medium-dose; celecoxib group), 0.5 h after administration.
The mark [6] stands for this setting: 30 mg/kg oral gavage (medium-dose; celecoxib group), 2 h after administration.
[7] abbreviates: 30 mg/kg oral gavage (medium-dose; celecoxib group), 4 h after administration.

Regarding `Cc1ccc(-c2cc(C(F)(F)F)nn2-c2ccc(S(N)(=O)=O)cc2)cc1` [Celecoxib, celecoxib], the “pancreatic injury histological score” value in test [1] amounted to 3.50±1.80. Besides, the “Pain threshold in acute inflammatory state” value was found to be 20.7±4.2 in test [2] (30 mg/kg group (medium-dose; celecoxib group), Before administration); 13.2±6.3 in test [2] (setting [5]); 23.9±5.3 in test [2] (setting [6]); 18.7±6.0 in test [2] (setting [7]). Besides, the “Pain threshold in chronic inflammatory state” value in test [2] (30 mg/kg oral gavage (medium-dose; celecoxib group), once daily for 7 days, End of administration) turned out to be 13.7±4.6. For the same compound, the “Acute pain threshold increase rate of mice” value in test [2] (setting [5]) is recorded as -35.2±29.8%; in test [2] (30 mg/kg oral gavage (medium-dose; celecoxib group), 1 h after administration), -52.3±55.5%; in test [2] (setting [6]), 34.52±54.1 %; in test [2] (setting [7]), -11.6±32.6 %. Besides, the “time after administration at which the pain threshold began to rise” value in test [3] is 30 min. Further, the Swelling degree in test [4] is recorded as 0.9904±0.12++.

The values above are taken from EP4563573A1, “COMPOUND, AND PREPARATION METHOD THEREFOR AND USE THEREOF IN PREPARATION OF SEH INHIBITOR AND PPARS AGONIST” (Shenyang Pharmaceutical University, priority 2023, dated 2024).
